Test results as given in patent US20050009903A1, “CB2-selective cannabinoid analogues” (priority 2003, published 2005).
Read-outs that look alike come from different tables or passages of the source.

Experiments:
[1] = molecular target: T1, CB1 receptor (Rattus norvegicus, UniProt P20272); assay: CB1 assay: displacement of [3H]CP-55,940 from rat brain membrane preparation; assay type: binding
T1 construct: from tissue; host or cells: rat whole brain, P2 membranes

[2] = molecular target: CB2 receptor (Homo sapiens, UniProt P34972); assay: CB2 assay: displacement of [3H]CP-55,940 from cloned human CB2 receptor preparation (transfected HEK 293 cells); assay type: binding; parameters: expressed in transfected cells; details: for Ratio CB17CB2 / Ratio CB1/CB2: ratio of Ki values
[3] = Table 2, mean ± SEM, 3-(alkyl-1-naphthoyl)indoles, read-out: Ki CB1
[4] = cloned human CB2, read-out: Ki at CB2 receptor
[5] = Ki CB2, Table 1, mean ± SEM, cloned human CB2, [3H]CP 55,940
[6] = Ki at CB2 receptor, cloned human CB2
[7] = rat brain membranes, read-out: Ki at CB1 receptor
[8] = Table 1, mean ± SEM, rat brain membranes, [3H]CP 55,940, read-out: Ki CB1
[9] = Table 1, mean ± SEM, cloned human CB2, [3H]CP 55,940, read-out: Ki CB2
[10] = Table 2, mean ± SEM, 3-(alkyl-1-naphthoyl)indoles, read-out: Ki CB2
[11] = Table 3, mean ± SEM, 3-(alkoxy-1-naphthoyl)indoles, the same values as Ki in nM, read-out: CB1 (receptor affinity)

Sequence of CB2 receptor (P34972 whole entry): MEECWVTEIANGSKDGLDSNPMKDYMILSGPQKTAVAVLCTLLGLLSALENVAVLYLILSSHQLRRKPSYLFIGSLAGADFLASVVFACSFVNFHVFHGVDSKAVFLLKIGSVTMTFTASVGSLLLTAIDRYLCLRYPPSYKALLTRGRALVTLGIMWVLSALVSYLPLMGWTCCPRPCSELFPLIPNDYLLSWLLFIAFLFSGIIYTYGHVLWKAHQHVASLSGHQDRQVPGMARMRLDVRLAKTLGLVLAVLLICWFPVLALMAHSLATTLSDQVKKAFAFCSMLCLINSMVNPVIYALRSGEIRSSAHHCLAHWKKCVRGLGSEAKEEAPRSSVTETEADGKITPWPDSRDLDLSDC
T1 sequence (P20272 whole entry): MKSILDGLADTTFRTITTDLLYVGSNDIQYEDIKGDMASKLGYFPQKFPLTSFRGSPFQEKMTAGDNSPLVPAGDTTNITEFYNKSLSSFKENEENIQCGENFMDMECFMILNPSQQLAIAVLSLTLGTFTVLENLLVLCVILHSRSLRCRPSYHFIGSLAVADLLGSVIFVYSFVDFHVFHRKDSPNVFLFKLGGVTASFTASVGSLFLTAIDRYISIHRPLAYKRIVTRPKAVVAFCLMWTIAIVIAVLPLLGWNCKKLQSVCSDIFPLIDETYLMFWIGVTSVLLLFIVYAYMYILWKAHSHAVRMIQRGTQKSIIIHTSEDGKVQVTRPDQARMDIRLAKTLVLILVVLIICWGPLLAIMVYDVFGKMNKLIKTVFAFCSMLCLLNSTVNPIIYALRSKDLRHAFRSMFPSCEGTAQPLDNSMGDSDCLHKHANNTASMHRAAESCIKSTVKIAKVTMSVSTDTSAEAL

Row | Compound | Ratio CB17CB2 ([2]; Table 2) | Ki [2, 4] | Ki [1, 7] | other results
1 | CCCCCn1c(C)c(C(=O)c2ccc(CCC)c3ccccc23)c2ccccc21 [JWH-181, 2-Methyl-1-pentyl-3-(4-propyl-1-naphthoyl)indole] | 2.1 | 0.62 ± 0.04 nM |  | Ki [1, 3]: 1.3 ± 0.1 nM
2 | CCCCC(C)(C)c1cc(OC)c2c(c1)OC(C)(C)[C@@H]1CC=C(CO)C[C@@H]21 [Compound 11d, 1-Methoxy-3-(1′,1′-dimethylpentyl)-11-hydroxy-Δ^8-THC] |  |  |  | Ki [1]: 40 ± 6 nM; Ki [2, 5]: 4.4 ± 0.3 nM; Ki [2, 6]: 40 ± 6 nM; Ratio CB1/CB2 ([2]; Table 1): 9.1
3 | CCCCc1ccc(C(=O)c2c(C)n(CCC)c3ccccc23)c2ccccc12 [JWH-241, 2-Methyl-1-propyl-3-(4-butyl-1-naphthoyl)indole] | 3.0 | 49 ± 7 nM | 147 ± 20 nM | 
4 | CCCCCn1c(C)c(C(=O)c2cccc3ccc(OC)cc23)c2ccccc21 [JWH-159, 2-Methyl-1-pentyl-3-(7-methoxy-1-naphthoyl)indole] |  | 10.4 ± 1.4 nM | 45 ± 1 nM | 
5 | CCCn1c(C)c(C(=O)c2ccc(CC)c3ccccc23)c2ccccc21 [JWH-211, 2-Methyl-1-propyl-3-(4-ethyl-1-naphthoyl)indole] | 5.8 | 12 ± 0.8 nM | 70 ± 0.8 nM | 
6 | CCCn1c(C)c(C(=O)c2ccc(C)c3ccccc23)c2ccccc21 [JWH-148, 2-Methyl-1-propyl-3-(4-methyl-1-naphthoyl)indole] | 8.8 | 14 ± 1 nM | 123 ± 8 nM | 
7 | CCC(C)(C)c1cc(OC)c2c(c1)OC(C)(C)C1CC=C(CO)CC21 (centres unmarked) [Compound 11b, 1-Methoxy-3-(1′,1′-dimethylpropyl)-11-hydroxy-Δ^8-THC] |  |  |  | Ki [1, 8]: 1010 ± 117 nM; Ki [2, 9]: 85 ± 21 nM; Ratio CB1/CB2 ([2]; Table 1): 12
8 | CCCn1c(C)c(C(=O)c2cccc3ccc(CC)cc23)c2ccccc21 [JWH-236, 2-Methyl-1-propyl-3-(7-ethyl-1-naphthoyl) indole] | 5.6 | 240 ± 63 nM | 1350 ± 204 nM | 
9 | CCCc1ccc(C(=O)c2c(C)n(CCC)c3ccccc23)c2ccccc12 [JWH-189, 2-Methyl-1-propyl-3-(4-propyl-1-naphthoyl)indole] | 4.3 |  |  | Ki [1, 3]: 52 ± 2 nM; Ki [2, 10]: 12 ± 0.8 nM
10 | CCCCCn1c(C)c(C(=O)c2cccc3cc(OC)ccc23)c2ccccc21 [JWH-153, 2-Methyl-1-pentyl-3-(6-methoxy-1-naphthoyl)indole] |  | 11 ± 1 nM |  | Ki [1]: 240 ± 24 nM; Ki [1, 11]: 250 ± 24 nM
11 | CCCCCn1cc(C(=O)c2ccc(CCC)c3ccccc23)c2ccccc21 [JWH-182, 1-Pentyl-3-(4-propyl-1-naphthoyl)indole] | 0.6 |  |  | Ki [1, 3]: 0.65 ± 0.03 nM; Ki [2, 10]: 1.1 ± 0.1 nM
12 | CCCCCn1c(C)c(C(=O)c2ccc(CC)c3ccccc23)c2ccccc21 [JWH-213, 2-Methyl-1-pentyl-3-(4-ethyl-1-naphthoyl)indole] | 3.6 |  |  | Ki [1, 3]: 1.5 ± 0.2 nM; Ki [2, 10]: 0.42 ± 0.05 nM
13 | CCCCCn1cc(C(=O)c2ccc(C)c3ccccc23)c2ccccc21 [JWH-122] | 0.6 |  |  | Ki [2, 10]: 1.2 ± 1.2 nM
14 | COc1cc(C(C)(C)C)cc2c1[C@@H]1CC(CO)=CC[C@H]1C(C)(C)O2 [Compound 11a, 1-Methoxy-3-(1′,1′-dimethylethyl)-11-hydroxy-Δ^8-THC] |  |  |  | Ki [1]: 1860 ± 148 nM; Ki [2, 6]: 333 ± 104 nM; Ratio CB1/CB2 ([2]; Table 1): 5.6
15 | CC(C)(C)c1ccc2c(c1)OC(C)(C)C1CC=C(CO)CC21 (centres unmarked) [Compound 9a, 1-Deoxy-3-(1′,1′-dimethylethyl)-11-hydroxy-Δ^8-THC] |  | 18.1 ± 1.8 nM | 270 ± 58 nM | 
16 | CCCCCn1cc(C(=O)c2cccc3ccc(CC)cc23)c2ccccc21 [JWH-234, 1-Pentyl-3-(7-ethyl-1-naphthoyl)indole] | 2.2 | 3.8 ± 0.6 nM | 8.4 ± 1.8 nM | 
17 | CCCCCn1cc(C(=O)c2cccc3ccccc23)c2ccccc21 [JWH-018] | 3.3 |  |  | 

Row | Compound | Ratio CB17CB2 ([2]; Table 2) | Ki [2, 4] | Ki [1, 7] | other results
18 | CCCn1c(C)c(C(=O)c2cccc3ccc(C)cc23)c2ccccc21 [JWH-046, 2-methyl-1-propyl-3-(7-methyl-1-naphthoyl)indole] | 21 |  |  | 
19 | CCCn1cc(C(=O)c2cccc3ccc(OC)cc23)c2ccccc21 [JWH-165, 1-Propyl-3-(7-methoxy-1-naphthoyl)indole] |  | 71 ± 8 nM | 204 ± 26 nM | 
20 | CCCn1cc(C(=O)c2cccc3cc(OC)ccc23)c2ccccc21 [JWH-163, 1-Propyl-3-(6-methoxy-1-naphthoyl)indole] |  | 138 ± 12 nM |  | Ki [1, 11]: 2360 ± 215 nM
21 | CCCn1cc(C(=O)c2ccc(CC)c3ccccc23)c2ccccc21 [JWH-212, 1-Propyl-3-(4-ethyl-1-naphthoyl)indole] | 3.3 |  |  | Ki [1, 3]: 33 ± 0.9 nM; Ki [2, 10]: 10 ± 1.2 nM
22 | CCC(C)(C)c1ccc2c(c1)OC(C)(C)[C@@H]1CC=C(CO)C[C@@H]21 [Compound 9b, 1-Deoxy-3-(1′,1′-dimethylpropyl)-11-hydroxy-Δ^8-THC] |  |  |  | Ki [1]: 187 ± 23 nM; selectivity for the CB2 receptor ([2]; CB2 over CB1 affinity): 25 fold; Ki [2, 6]: 5.6 ± 1.7 nM; Ratio CB1/CB2 ([2]; Table 1): 33
23 | CCCCCn1cc(C(=O)c2ccc(CCCC)c3ccccc23)c2ccccc21 [JWH-240, 1-Pentyl-3-(4-butyl-1-naphthoyl)indole] | 1.9 | 7.2 ± 13 nM | 14 ± 1 nM | 
24 | CCCCCn1c(C)c(C(=O)c2ccc(OCC)c3ccccc23)c2ccccc21 [JWH-260, 2-Methyl-1-pentyl-3-(4-ethoxy-1-naphthoyl)indole] |  | 25 ± 1.9 nM | 29 ± 0.4 nM | 
25 | CCCCc1ccc(C(=O)c2cn(CCC)c3ccccc23)c2ccccc12 [JWH-239, 1-Propyl-3-(4-butyl-1-naphthoyl)indole] | 6.6 | 52 ± 6 nM | 342 ± 20 nM | 
26 | CCCCCn1cc(C(=O)c2cccc3cc(OC)ccc23)c2ccccc21 [JWH-166, 1-Pentyl-3-(6-methoxy-1-naphthoyl)indole] |  | 1.9 ± 0.1 nM | 44 ± 10 nM | 
27 | CCCCCn1c(C)c(C(=O)c2cccc3ccc(C)cc23)c2ccccc21 [JWH-048, 2-Methyl-1-pentyl-3-(7-methyl-1-naphthoyl) indole] | 22 |  |  | 
28 | CCCn1cc(C(=O)c2ccc(OCC)c3ccccc23)c2ccccc21 [JWH-259, 1-Propyl-3-(4-ethoxy-1-naphthoyl)indole] |  | 74 ± 7 nM | 220 ± 29 nM | 
29 | CCCCC(C)(C)c1ccc2c(c1)OC(C)(C)C1CC=C(CO)CC21 (centres unmarked) [Compound 9d, 1-Deoxy-3-(1′,1′-dimethylpentyl)-11-hydroxy-Δ^8-THC] |  |  |  | Ki [1, 8]: 8.8 ± 1.4 nM; Ki [2, 9]: 1.6 ± 0.03 nM; Ratio CB1/CB2 ([2]; Table 1): 5.5
30 | CCCC(C)(C)c1cc(OC)c2c(c1)OC(C)(C)[C@@H]1CC=C(CO)C[C@@H]21 [Compound 11c, 1-Methoxy-3-(1′,1′-dimethylbutyl)-11-hydroxy-Δ^8-THC] |  |  |  | Ki [1]: 347 ± 34 nM; Ki [2, 5]: 28 ± 1 nM; Ratio CB1/CB2 ([2]; Table 1): 12
31 | CCCCCn1c(C)c(C(=O)c2ccc(C)c3ccccc23)c2ccccc21 [JWH-149] | 6.8 |  |  | Ki [2, 10]: 0.73 ± 0.03 nM
32 | CCCn1cc(C(=O)c2cccc3ccccc23)c2ccccc21 [JWH-072] | 6.2 |  |  | 
33 | CCCCCn1cc(C(=O)c2cccc3ccc(OC)cc23)c2ccccc21 [JWH-164, 1-Pentyl-3-(7-methoxy-1-naphthoyl)indole] |  | 6.9 ± 0.2 nM | 6.6 ± 0.7 nM | 
34 | COc1cc(C(C)(C)C)cc2c1C1CC(C)=CCC1C(C)(C)O2 (centres unmarked) [Compound 6a, 1-Methoxy-3-(1′,1′-dimethylethyl)-Δ^8-THC] |  | 1870 ± 867 nM |  | Ki [1, 8]: > 10000 nM; Ratio CB1/CB2 ([2]; Table 1): 5.4
